Measured values reported in US11066379B2 (THE TEXAS A&M UNIVERSITY SYSTEM, priority 2018, dated 2021).
Where “and” joins values, the source holds several entries; their conditions need not be identical. Equal entries are not always repeated. Entries after “also recorded” stand apart in the source; their conditions may differ.

Tests used:
[1] = test system: SH-SY5Y cells; experiment: Cellular toxicity in SH-SY5Y cells (MTT, 24 h); assay type: cell-based; conditions: 24 h; for cytotoxicity toward SH-SY5Y cells: 10-0.01 μM, in words
From the text: (§1) The MTT (3-[4,5-dimethylthiazol-2-yl]-2,5-diphenyltetrazoliumbromide) assay was used to determine the cytotoxicity of gracilin derivatives in T lymphocytes (Burton, J. D. Methods Mol. Med., 2005, 110, 69-78) and SH-SY5Y cells and the protective effect of these compounds against H2O2 insult in neuroblastoma cells as previously described (Leiros, M., Alonso, E., Sanchez, J. A., Rateb, M. E., Ebel, R., Houssen, W. E., Jaspars, M., Alfonso, A. and Botana, L. M. ACS Chem. Neurosci., 2014, S, 71-80). Human T lymphocytes were cultured in 24 well plates at the concentration of 2.5×10^6 cells/mL and exposed to different compound concentrations (0.01, 0.1, 1 and 10 μM) added to the culture medium. Human T cells were maintained in the presence of the pure compound at 37° C. in humidified 5% CO2/95% air atmosphere for 48 h.
(§2) SH-SY5Y cells were seeded in 96-well plates at a density of 2.5×10^5 cells/mL and allowed to adhere for 24 h. At first, cells were treated only with compounds at concentrations ranging from 10-0.01 μM for 24 h to determine their possible cytotoxic effects. Experiments were carried out three times. For neuroprotective experiments, cells were treated with compounds at non-toxic concentrations (1 μM→1 nM) and 150 μM H2O2 for 6 h. Briefly, cells were washed three times with saline solution and 200 μL of MTT (500 μg/mL) dissolved in saline buffer were added to each well. Following 1 h of incubation at 37° C., the cells were disaggregated with sodium dodecyl sulphate at 5%.
Absorbance of formazan crystals was measured at 595 nm with a spectrophotometer plate reader. Saponin was used as death control and its absorbance was subtracted from the other data. All experiments were performed four times.

[2] = test system: SH-SY5Y cells; experiment: Neuroprotection against H2O2 toxicity, cell viability by MTT; assay type: cell-based, human; conditions: 150 μM H2O2 co-treatment 6 h; 0.01, 0.1 and 1 μM
Description: as §2, with “5%. Absorbance of formazan crystals was measured at 595 nm with a spectrophotometer plate reader. Saponin was used as death control and its absorbance was subtracted from the other data. All experiments were performed four times.” for “5%.”

[3] = test system: SH-SY5Y cells; experiment: Intracellular ROS levels (carboxy-H2DCFDA) after H2O2; assay type: cell-based, human; conditions: 150 μM H2O2 co-treatment 6 h
Description: Intracellular levels of reactive oxygen species (ROS) were determined with carboxy-H2DCFDA (5-(and-6)-carboxy-2′,7′-dichlorodihydrofluorescein diacetate). This dye diffuses through the cellular membrane and is converted by cellular esterases to carboxy-H2DCFH (non-fluorescent). When carboxy-H2DCFH is oxidized by ROS, it becomes fluorescent (Halliwell, B. and Whiteman, M. Br. J. Pharmacol., 2004, 142, 231-255). Cells were seeded at a density of 2.5×10^5 cells/mL in 96-well plates and allowed to attach for 24 h. Following treatment with compounds at various concentrations (1 μM→1 nM) and 150 μM H2O2 for 6 h, SH-SY5Y cells were washed twice with serum-free culture medium. Then, carboxy-H2DCFDA 20 μM dissolved in serum-free culture medium was added to each well and the cells were incubated for 1 h at 37° C. After this incubation, the medium with the fluorescent dye was replaced with PBS and the plate was incubated for 30 min at 37° C. Fluorescence was read at 527 nm, with an excitation wavelength of 495 nm. All experiments were performed four times.

[4] = test system: SH-SY5Y cells; experiment: Glutathione assay (Thiol Tracker Violet) after H2O2; assay type: cell-based, human; conditions: 150 μM H2O2 co-treatment 6 h, two or more concentrations
Description: Glutathione (GSH) levels were determined using Thiol Tracker Violet dye, which reacts with reduced thiols in cells. Reduced glutathione represents the majority of intracellular free thiols, so this probe can be used to estimate its levels in cells. Measurements were performed following manufacturer's protocol. Cells were seeded in 96-well plates at 2.5×10^5 cells/mL for 24 h and treated with compounds at various concentrations (1 μM→1 nM) and 150 μM H2O2. After 6 h, SH-SY5Y cells were washed twice with PBS and loaded with 100 μL of prewarmed Thiol Tracker Violet dye (10 μM) for 30 min at 37° C. The fluorescence was measured at 404 nm excitation and emission at 526 nm. All experiments were performed four times.

[5] = test system: mitochondrial membrane permeability transition pore (mPTP) in SH-SY5Y cells; experiment: Mitochondrial membrane permeability transition pore (mPTP) measurement, TBHP-induced opening; assay type: cell-based, human; conditions: 1 mM TBHP
Description: The blockage of mPTP by compounds was determined with the MitoProbe Transition Assay Kit following manufacturer's instructions. Briefly, SH-SY5Y human neuroblastoma cells were re-suspended in pre-warmed PBS/Ca^+2 buffer at a final concentration of 1×10^6 cells/mL. Cells were loaded with 0.01 μM Calcein-AM and incubated at 37° C. for 15 min. Then, 0.4 mM CoCl2 and compounds at selected concentrations were added and incubated for 15 min at 37° C. […] After this incubation, cells were centrifuged and re-suspended in 100 μL of PBS. Just before analyzing, 1 mM tert-butyl hydroperoxide (TBHP) was added to the samples to induce pore opening. Fluorescence intensity was measured at 488 nm excitation and 517 nm emission wavelengths by flow cytometry using the ImageStreamMKII (Amnis Corporation, Merck-Millipore) and […] software. The fluorescence of 10,000 events was analyzed with IDEASR Application vs 6.0 (Amnis Corporation, Merck-Millipore). Experiments were carried out four times.

[6] = biological target: CypD (Homo sapiens, UniProt P30405); experiment: CypD enzyme inhibition assay (PPIase activity); assay type: biochemical; conditions: CypD 1 nM
Chain of CypD (P30405 30-207): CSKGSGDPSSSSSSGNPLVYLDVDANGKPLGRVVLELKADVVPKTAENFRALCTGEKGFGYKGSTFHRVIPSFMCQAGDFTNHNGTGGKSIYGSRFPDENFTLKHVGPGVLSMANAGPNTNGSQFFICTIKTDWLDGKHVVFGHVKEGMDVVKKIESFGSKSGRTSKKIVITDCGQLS
Description: The inhibition of the peptidyl-prolyl cis-trans isomerase (PPIase) activity of compounds was determined by following the rate of hydrolysis of N-succinyl-Ala-Ala-Pro-Phe-pnitroanilide by chymotrypsin. CsA was used as positive control. The assay was performed as previously described (Yan, W., Qing, J., Mei, H., Nong, J., Huang, J., Zhu, J., Jiang, H., Liu, L., Zhang, L. and Li, J. Bioorg. Med. Chem. Lett., 2015, 25, 5682-5686) with small modifications. The assay buffer (20 mM Tris-HCl, 50 mM NaCl, pH 7.8), CypD (1 nM) and the compounds at concentrations ranging from 0.001 to 10 μM were pre-cooled at 4° C. for 1 h. After that time, chymotrypsin at 0.4 mg/mL in 1 mM HCl was added to each well. The reaction was initiated by the addition of the peptide (0.1 mg/mL in 500 mM LiCl in THF). The absorbance at 380 nm was monitored every 30 sec for 5 min with a spectrophotometer plate reader. The blank rates of hydrolysis (in absence of CypD) were subtracted from the rates in the presence of the enzyme. The half-maximal inhibitory concentration (IC50) was calculated by fitting the data with a log(inhibitor) vs. response model of GraphPad Prism 5.0 software. All experiments were performed four times.

[7] = biological target: T1, CypA (Homo sapiens, UniProt P62937); experiment: CypA PPIase activity inhibition; assay type: biochemical; conditions: up to 10 μM, in words
T1 construct: Active human CypA full-length protein was from Abcam; purchased Abcam
T1 sequence (P62937 whole entry): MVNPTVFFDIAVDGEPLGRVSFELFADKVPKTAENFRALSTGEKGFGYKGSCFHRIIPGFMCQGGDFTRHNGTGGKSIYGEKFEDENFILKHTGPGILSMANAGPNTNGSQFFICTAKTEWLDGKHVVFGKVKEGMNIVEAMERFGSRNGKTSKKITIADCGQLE

[8] = test system: SHSY5Y cells; experiment: Neuroprotective effects summarised over all five assays (viability, TMRM, ROS, GSH, mPTP); assay type: cell-based, human; conditions: 0.001, 0.01 or 0.1 μM; H2O2 challenge
Description: As described previously, neuroprotective agents can mediate their effects through inhibition of CypD, an isoform of CypA. […] All assays were performed at the indicated concentrations (0.001, 0.01, or 0.1 μM) based on initial cytotoxicity determined with SHSY5Y cells (Table 1).

[9] = biological target: T2, active human CypA protein (Homo sapiens, UniProt P62937); experiment: Binding to immobilized CypA by surface plasmon resonance (SPR); conditions: SPR, immobilized CypA
T2 construct: Active human CypA full-length protein was from Abcam; purchased Abcam
T2 sequence (P62937 whole entry): as above
Description: Sensor surface activation and ligand immobilization were performed by using HBS-EP as running buffer at a flow rate of 5 μL/min and 25° C. CM5 sensor chips were used as surface where Cyp A or D was immobilized as ligand. The CM5 chip is a glass slide coated with a thin layer of gold with a matrix of carboxymethylated dextran covalently attached. The CM5 chip was activated using an amine coupling kit. […] After activation, the ligand, 100 μg/mL of active human CypA protein dissolved in sodium acetate 10 mM at pH 4.5 was added to be immobilized over a CM5 sensor chip. Finally ethanolamine-HCl was injected to deactivate the remaining active esters and to avoid non-specific binding. […] Once analytes were tested and interaction was observed, individual binding curves were analyzed by determining the kinetic constants of analytes-CypA binding, namely, the observed rate constant (Kobs), the association rate constant (Kass), the dissociation rate constant (Kdiss), and the kinetic equilibrium dissociation constant (KD). At equilibrium, by definition, […]. The pseudo-first order association rate constants Kobs (s^-1) were determined for each compound concentration by using the 1:1 Langmuir association model of BiaEvaluation software (BiaCore, Uppsala, Sweden). Then a representation of Kobs against the corresponding concentration of each compound was done. […] From the equation of these representations, Kass, M^-1 s^-1, gradient of the plot, and […]^-1, intercept of the plot was obtained. Within these two values, the kinetic equilibrium dissociation constant KD for each analyte-CypA binding was obtained. The duration of the sample injection was 2 min at 10 μL/min flow rate. Next, dissociation of bound molecules in HBS-EP buffer flow was studied. The bound drugs were removed from the chip surface before the next injection by adding 1 M Glycine-HCl at pH 2.5 for 1 min. The association phase was used to quantify the compound-CypA or D interactions. All experiments were performed four times.

[10] = test system: Interleukin-2 (IL-2) production in human T lymphocytes; experiment: Interleukin-2 release in Con A-stimulated human T lymphocytes (ELISA); assay type: cell-based; conditions: 2 h pre-treatment at non-toxic concentration, Con A 50 μg/mL 48 h
Description: Then, cells were stimulated with Concanavalin A (Con A) at 50 μg/mL for 48 h to induce IL-2 release. The amount of IL-2 released to the culture medium was evaluated using Human IL-2 ELISA kit. Experiments were carried out four times.

[11] = Viability of human T lymphocytes (MTT assay, 48 h); assay type: cell-based; conditions: human; 1 μM, 48 hours; read-out: decrease in cell viability
From the text: as §1
(§3) Saponin was used as cellular death control and its absorbance was subtracted from the other data. After the incubation period with compounds, assay was performed. First cells were centrifuged (1500 rpm, 5 min, 4° C.). The pellets were resuspended in saline solution with MTT (250 μg/mL) and then incubated at 37° C. during 30 min. After washing off excess MTT twice with saline solution, cells were disaggregated with H2O and sonicated for 1 min and the absorbance of the colored formazan salt was measured at 595 nm in a spectrophotometer plate reader. All experiments were performed three times.

[12] = test system: human T lymphocytes; experiment: Viability of human T lymphocytes (MTT assay, 48 h); assay type: cell-based; conditions: in words
From the text: as §1, §3

[13] = biological target: EGF-R (Homo sapiens, UniProt P00533); conditions: 100 μM; cited from earlier work
Chain of EGF-R (P00533 25-1210, species assumed): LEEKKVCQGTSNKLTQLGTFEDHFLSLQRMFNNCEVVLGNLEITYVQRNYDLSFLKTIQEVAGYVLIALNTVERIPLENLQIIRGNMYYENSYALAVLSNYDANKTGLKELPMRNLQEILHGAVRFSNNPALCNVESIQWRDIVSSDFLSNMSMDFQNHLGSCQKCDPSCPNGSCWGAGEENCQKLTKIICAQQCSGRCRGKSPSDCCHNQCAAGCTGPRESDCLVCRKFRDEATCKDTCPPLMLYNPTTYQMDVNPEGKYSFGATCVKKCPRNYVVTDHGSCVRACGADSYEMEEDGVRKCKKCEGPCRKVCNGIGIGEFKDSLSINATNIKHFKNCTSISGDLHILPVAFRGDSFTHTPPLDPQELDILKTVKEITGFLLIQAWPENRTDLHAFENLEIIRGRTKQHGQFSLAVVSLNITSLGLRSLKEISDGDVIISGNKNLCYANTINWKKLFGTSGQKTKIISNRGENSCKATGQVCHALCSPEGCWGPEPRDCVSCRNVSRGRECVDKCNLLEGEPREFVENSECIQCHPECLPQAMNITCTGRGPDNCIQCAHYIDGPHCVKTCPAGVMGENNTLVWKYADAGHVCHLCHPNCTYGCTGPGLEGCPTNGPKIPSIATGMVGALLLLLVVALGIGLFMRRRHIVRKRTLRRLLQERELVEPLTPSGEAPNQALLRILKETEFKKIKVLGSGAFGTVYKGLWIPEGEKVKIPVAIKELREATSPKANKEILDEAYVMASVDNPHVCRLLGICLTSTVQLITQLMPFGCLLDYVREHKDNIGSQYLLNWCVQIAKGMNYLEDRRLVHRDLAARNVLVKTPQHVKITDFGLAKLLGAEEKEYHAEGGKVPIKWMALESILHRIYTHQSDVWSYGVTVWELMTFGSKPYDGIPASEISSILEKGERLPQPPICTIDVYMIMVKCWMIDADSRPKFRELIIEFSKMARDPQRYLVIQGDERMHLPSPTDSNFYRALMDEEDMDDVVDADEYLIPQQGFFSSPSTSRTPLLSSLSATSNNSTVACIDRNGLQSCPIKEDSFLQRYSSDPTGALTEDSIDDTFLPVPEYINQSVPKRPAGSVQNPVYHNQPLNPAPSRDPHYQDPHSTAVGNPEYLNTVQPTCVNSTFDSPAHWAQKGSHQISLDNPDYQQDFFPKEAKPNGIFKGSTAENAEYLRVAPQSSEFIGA

Row | Compound | cytotoxicity toward SH-SY5Y cells [1] | protection of cell viability against H2O2 insult [2] | ROS levels [3] | GSH levels [4] | mPTP opening [5] | IC50 [6] | CypA PPIase inhibitory activity [7] | neuroprotective / antioxidant effects based on all five assays [8] | Kd [9] | Inhibition of IL-2 production [10] | cytotoxicity at 48 h, 1 μM [11] | impact on T-cell viability [12] | IC50 ([1]; Homo sapiens, SH-SY5Y, read-out: IC50 (cellular toxicity)) | EGF-R inhibition [13]
1 | CC(=O)OC[C@@H]1CCC(C2(C)CCCCC2)=C[C@@H]1COC(C)=O [Compound 27b, ((3S,4R)-1′-methyl-[1,1′-bi(cyclohexan)]-1-ene-3,4-diyl)bis(methylene) diacetate] | led to cell death at the higher concentrations tested | protected cells against H2O2 insult at almost all concentrations | diminishing ROS at two or three concentrations | recovered GSH levels | prevent TBHP-induced opening | 480 nM and < 500 nM | inactive | displayed significant neuroprotective effects; also recorded: significant antioxidant activity in all five assays | – | – | – | – | – | –
2 | CC(=O)O[C@H]1OC[C@@H]2C=C([C@]3(C)CCCC(C)(C)C3)CC[C@H]12 [Compound 29b, (1R,3aR,7aS)-5-(1,3,3-trimethylcyclohexyl)-1,3,3a,6,7,7a-hexahydroisobenzofuran-1-yl acetate] | led to cell death at the higher concentrations tested | – | – | – | – | – | – | – | ~3000 nM and 2800 to 6800 nM | ~0% | 15 to 25% | relatively non-toxic | 7900 nM | –
3 | C/C=C1\C([C@@]2(C)CCCC(C)(C)C2)=CC[C@H]2[C@H](OC(C)=O)O[C@H](OC(C)=O)[C@@H]12 [gracilin A, reference compound] | – | – | – | – | – | – | – | – | 2530 ± 400 nM | – | – | – | – | 70%
